No end group written: not given here.
System: Male Japanese white rabbits
Assay: Schirmer test paper method: amount of lacrimal fluid after instillation
Assay type: in vivo, rabbit
Description: The Schirmer test paper method, which is used for measurement of an amount of a human lacrimal fluid, is one method of measuring a change in an amount of a lacrimal fluid of a normal animal in instilling a drug. In the present invention, an amount of a lacrimal fluid in instilling the natriuretic peptide was measured by using the Schirmer test paper method, and an effect of the natriuretic peptide on a rate of lacrimal secretion was studied.
Male Japanese white rabbits, body weight; 1.8 to 2.2 kg, were used for the experiment.
The natriuretic peptide (0.56 mg) was dissolved in sterile purified water to prepare a 0.1% solution just before using. This solution is referred to as a solution of a test drug.
The solution of the test drug (50 μl) was instilled into a left eye once. […]
Amounts of the lacrimal fluid were measured using Schirmer test paper with respect to the eye to which the drug was administered and the eye to which no drug was administered before administering the drug and after a prescribed period of time from the instillation. […] One minute later, length of a wet portion (Schirmer value, mm) of the test paper was measured from the fold. […]
The action of the solution of the test drug on the rate of the lacrimal secretion at a time of T hours after the instillation is represented by the increment of the lacrimal fluid (mm) determined by the following equation. […]

Human CNP-22: C-type natriuretic peptide (human) consisting of 22 amino acids; purchased from Peptide Research Institute (GLSKGCFGLKLDRIGSMSGLGC; ends and bridges not checked; cysteine pairing not given here; UniProt P23582 105-126, looked up)
Increment of lacrimal fluid (mm) (one hour after administering drug, 0.1% solution, 50 μl instilled once into left eye, vehicle-corrected Schirmer value, average of six samples per group): +1.33 mm
effect of promoting the lacrimal secretion (rabbits, instillation, result in words): excellent effects of promoting the lacrimal secretion

Reference: patent US6833358B1, “Lacrimal secretion promoters or eye drops for treating keratoconjunctival failure containing as the active ingredient natriuretic peptides” (Santen Pharmaceutical Co., Ltd., priority 1998, dated 2004)
